Data as given in patent US7563895B2, “Quinoxaline compounds” (Janssen Pharmaceutica, N.V., priority 2003, dated 2009).

Target: T1, CCK2 receptor (Homo sapiens, UniProt P32239)
T1 construct: Membranes were prepared from the HEKZFP cells after induction; endogenous in cells; host or cells: HEKZFP cells (T-REx-293 with tet-inducible ZFP-VP16 specific for the CCK2R gene), doxycycline-induced; membrane preparation
T1 sequence (P32239 1-447): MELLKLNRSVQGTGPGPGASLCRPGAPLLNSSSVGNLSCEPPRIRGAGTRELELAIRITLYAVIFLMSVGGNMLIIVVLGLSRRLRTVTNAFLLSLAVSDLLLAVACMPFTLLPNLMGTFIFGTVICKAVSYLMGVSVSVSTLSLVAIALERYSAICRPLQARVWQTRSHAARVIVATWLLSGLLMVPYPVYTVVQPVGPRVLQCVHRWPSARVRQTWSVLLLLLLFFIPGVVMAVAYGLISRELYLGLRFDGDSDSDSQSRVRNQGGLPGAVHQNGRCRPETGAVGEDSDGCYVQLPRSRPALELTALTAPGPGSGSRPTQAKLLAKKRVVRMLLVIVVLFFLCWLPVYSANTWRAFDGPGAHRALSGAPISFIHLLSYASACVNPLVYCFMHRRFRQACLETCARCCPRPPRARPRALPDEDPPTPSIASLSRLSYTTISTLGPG
Experiment: CCK2 receptor radioligand binding assay ([125I]-BH-CCK-8S, HEKZFP cell membranes)
Conditions: competition with [125I]-BH-CCK-8S, membranes of induced HEKZFP cells, 60 min at 21±3° C., Cheng-Prusoff
Experimental: Zinc Finger Proteins (ZFP) specific for the CCK2R gene were identified by Sangamo Biosciences. The ZFP domain was fused with the herpes simplex virus VP16 activation domain, and the fusion protein was subsequently cloned into the pcDNA3 mammalian expression vector (Invitrogen, San Diego, Calif.). […] After 2 weeks of selection in culture medium containing […] Zeocin (Invitrogen), sixty drug-resistant stable clones were isolated and analyzed for ZFP expression as well as CCK2R induction upon addition of doxycycline to the culture medium.
HEKZFP cells were grown in DMEM supplemented with L-glutamine (2 mM), penicillin (50 units/mL) and streptomycin (50 μg/mL) and 10% FBS (v/v).
Membranes were prepared from the HEKZFP cells after induction. […] The thawed pellets were homogenized using a Polytron PT-10 (7×1 s). The homogenates were centrifuged for 5 min at 1500 rpm (600×g), and the resulting pellets were discarded. The supernatants were re-centrifuged in order to collect the receptor-membrane pellets (25 min 15,000 rpm; 39,800×g), which were re-suspended in buffer A.
The assay preparation was incubated for 1 h at 21±3° C., and then the assay was terminated by rapid filtration of the preparation under reduced pressure. The loaded filters were washed three times using undiluted PBS (100 μL), and then 100 μL of scintillation fluid was added to the filter plate. Bound radioactivity was determined using a Topcount (Packard BioScience, Meriden, Conn.) with a count time of 1 min. […] To validate the radioligand concentration and incubation time for the assay, saturation and kinetic binding studies were also conducted (see M. F. Morton, The Pharmacological Characterization of Cholecystokinin Receptors in the Human Gastrointestinal Tract. PhD Thesis, University of London, 2000). […] The assay was then terminated according to the procedure outlined above.
The pKi values were determined using the equation of Y.-C.
To circumvent problems associated with computer-assisted data analysis of compounds with low affinity, the data obtained in the current study were weighed according to a method described by Morton. In brief, 100% and 0% specific binding were defined independently using total binding and binding obtained in the presence of a high concentration of the reference antagonist, 2-NAP.

Row | SMILES | Ki [nM] | pKi
1 | C[C@@H](NC(=O)c1ccc(Br)cc1NS(=O)(=O)c1cccc2nccnc12)c1ccc(Cl)cc1Cl [Example 1, (R)-4-Bromo-N-[1-(2,4-dichlorophenyl)-ethyl]-2-(quinoxaline-5-sulfonylamino)-benzamide] | 7.94 | –
2 | C[C@@H](NC(=O)c1ccc(Cl)cc1NS(=O)(=O)c1cccc2nccnc12)c1ccc(F)cc1F [Example 3, (R)-4-Chloro-N-[1-(2,4-difluorophenyl)-ethyl]-2-(quinoxaline-5-sulfonylamino)-benzamide] | 12.6 | –
3 | C[C@@H](NC(=O)c1cc(Cl)c(Cl)cc1NS(=O)(=O)c1cccc2nccnc12)c1ccc(F)cc1F [Example 5, (R)-4,5-Dichloro-N-[1-(2,4-difluorophenyl)ethyl]-2-(quinoxaline-5-sulfonylamino)-benzamide] | 15.8 | –
4 | C[C@@H](NC(=O)c1ccc(Br)cc1NS(=O)(=O)c1cccc2nccnc12)c1ccc(F)cc1 [Example 8, (R)-4-Bromo-N-[1-(4-fluorophenyl)-ethyl]-2-(quinoxaline-5-sulfonylamino)-benzamide] | 39.8 | –
5 | C[C@H](NC(=O)c1ccc(Cl)cc1NS(=O)(=O)c1cccc2nccnc12)c1ccc(Cl)cc1Cl [Example 9, (S)-4-Chloro-N-[1-(2,4-dichlorophenyl)ethyl]-2-(quinoxaline-5-sulfonylamino)-benzamide] | 39.8 | –
6 | C[C@@H]1COCCN1C(=O)c1ccc(Br)cc1NS(=O)(=O)c1cccc2nccnc12 [Example 12, (R)-Quinoxaline-5-sulfonic acid [5-bromo-2-(3-methylmorpholine-4-carbonyl)-phenyl]-amide] | 79.4 | –
7 | C[C@@H](NC(=O)c1ccc(I)cc1NS(=O)(=O)c1cccc2nccnc12)c1ccc(F)cc1F [Example 15, (R)—N-[1-(2,4-Difluorophenyl)-ethyl]-4-iodo-2-(quinoxaline-5-sulfonylamino)-benzamide] | 12.6 | –
8 | O=C(NCc1ccc(F)cc1Cl)c1ccc(Br)cc1NS(=O)(=O)c1cccc2nccnc12 [Example 16, 4-Bromo-N-(2-chloro-4-fluoro-benzyl)-2-(quinoxaline-5-sulfonylamino)-benzamide] | 39.8 | –
9 | O=C(NCc1ccc(F)cc1F)c1ccc(Br)cc1NS(=O)(=O)c1cccc2nccnc12 [Example 17, 4-Bromo-N-(2,4-difluoro-benzyl)-2-(quinoxaline-5-sulfonylamino)-benzamide] | 63.1 | –
10 | O=C(c1ccc(I)cc1NS(=O)(=O)c1cccc2nccnc12)N1CCCCCC1 [Example 18, Quinoxaline-5-sulfonic acid [2-(azepane-1-carbonyl)-5-iodophenyl]-amide] | 63.1 | –
11 | C[C@@H]1COCCN1C(=O)c1ccc(I)cc1NS(=O)(=O)c1cccc2nccnc12 [Example 19, (R)-Quinoxaline-5-sulfonic acid [5-iodo-2-(3-methylmorpholine-4-carbonyl)-phenyl]-amide] | 79.4 | –
12 | O=C(c1ccc(Br)cc1NS(=O)(=O)c1cccc2nccnc12)N1CCCCCC1 [Example 21, Quinoxaline-5-sulfonic acid [2-(azepane-1-carbonyl)-5-bromophenyl]-amide] | 126 | –
13 | C[C@H]1COCCN1C(=O)c1ccc(I)cc1NS(=O)(=O)c1cccc2nccnc12 [Example 23, (S)-Quinoxaline-5-sulfonic acid [5-iodo-2-(3-methylmorpholine-4-carbonyl)-phenyl]-amide] | 251 | –
14 | C[C@@H]1COC[C@H](C)N1C(=O)c1ccc(I)cc1NS(=O)(=O)c1cccc2nccnc12 [Example 25, (R,S)-Quinoxaline-5-sulfonic acid [2-(3,5-dimethylmorpholine-4-carbonyl)-5-iodophenyl]-amide] | 316 | –
15 | O=C(c1ccc(I)cc1NS(=O)(=O)c1cccc2nccnc12)N1CCC(O)CC1 [Example 26, Quinoxaline-5-sulfonic acid [2-(4-hydroxy-piperidine-1-carbonyl)-5-iodo-phenyl]-amide] | 316 | –
16 | C[C@@H]1COC[C@H](C)N1C(=O)c1ccc(Br)cc1NS(=O)(=O)c1cccc2nccnc12 [Example 27, meso-Quinoxaline-5-sulfonic acid [2-(3,5-dimethylmorpholine-4-carbonyl)-5-bromophenyl]-amide] | 316 | –
17 | C[C@H]1COCCN1C(=O)c1ccc(Br)cc1NS(=O)(=O)c1cccc2nccnc12 [Example 28, (S)-Quinoxaline-5-sulfonic acid [5-bromo-2-(3-methylmorpholine-4-carbonyl)-phenyl]-amide] | 398 | –
18 | O=C(N[C@@H](c1ccc(F)cc1F)C(F)(F)F)c1ccc(Cl)cc1NS(=O)(=O)c1cccc2nccnc12 [Example 29, (S)-4-Chloro-N-[1-(2,4-difluoro-phenyl)-2,2,2-trifluoroethyl]-2-(quinoxaline-5-sulfonylamino)-benzamide] | 501 | –

Results, then the compound that gave them:

Row | Ki [nM] | pKi | SMILES
19 | 25.1 | – | O=C(c1ccc(I)cc1NS(=O)(=O)c1cccc2nccnc12)N1CCCCC1 [Example 4, Quinoxaline-5-sulfonic acid [5-iodo-2-(piperidine-1-carbonyl)-phenyl]-amide]
20 | – | 7.5 | O=C(c1ccc(I)cc1NS(=O)(=O)c1cccc2nccnc12)N1CCOCC1 [Example 6, Quinoxaline-5-sulfonic acid [5-iodo-2-(morpholine-4-carbonyl)-phenyl]-amide]
21 | 31.6 | – | C[C@@H](NC(=O)c1ccc(Cl)cc1NS(=O)(=O)c1cccc2nccnc12)c1ccc(F)cc1 [Example 7, (R)-4-Chloro-N-[1-(4-fluorophenyl)-ethyl]-2-(quinoxaline-5-sulfonylamino)-benzamide]
22 | 50.1 | – | O=C(c1ccc(Br)cc1NS(=O)(=O)c1cccc2nccnc12)N1CCCc2ccccc2C1 [Example 10, Quinoxaline-5-sulfonic acid [5-bromo-2-(1,3,4,5-tetrahydrobenzo[c]azepine-2-carbonyl)phenyl]-amide]
23 | – | 7.2 | O=C(c1ccc(Br)cc1NS(=O)(=O)c1cccc2nccnc12)N1CCOCC1 [Example 11, (R)-Quinoxaline-5-sulfonic acid [5-bromo-2-(morpholine-4-carbonyl)-phenyl]-amide]
24 | – | 6.5 | O=C(c1ccc(Cl)cc1NS(=O)(=O)c1cccc2nccnc12)N1CCOCC1 [Example 14, (R)-Quinoxaline-5-sulfonic acid [5-chloro-2-(morpholine-4-carbonyl)phenyl]-amide]
25 | 79.4 | – | O=C(c1cc(Cl)c(Cl)cc1NS(=O)(=O)c1cccc2nccnc12)N1CCOCC1 [Example 20, Quinoxaline-5-sulfonic acid [4,5-dichloro-2-(morpholine-4-carbonyl)-phenyl]-amide]
26 | 158 | – | O=C(c1ccc(Cl)cc1NS(=O)(=O)c1cccc2nccnc12)N1CCOc2ccccc2C1 [Example 22, Quinoxaline-5-sulfonic acid [5-chloro-2-(2,3-dihydro-5H-benzo[f][1,4]oxazepine-4-carbonyl)-phenyl]-amide]
27 | 316 | – | O=C(c1ccc(Br)cc1NS(=O)(=O)c1cccc2nccnc12)N1CCCc2cc(F)ccc2C1 [Example 24, Quinoxaline-5-sulfonic acid [5-bromo-2-(7-fluoro-1,3,4,5-tetrahydro-benzo[c]azepine-2-carbonyl)-phenyl]-amide]
28 | – | 7.2 | O=C(c1ccc(Br)cc1NS(=O)(=O)c1cccc2nccnc12)N1CCCCC1 [Example 32, Quinoxaline-5-sulfonic acid [5-bromo-2-(piperidine-1-carbonyl)-phenyl]-amide]
